{"source": "patent US20240350508A1", "about": "“USE OF EZH2 INHIBITORS FOR THE TREATMENT OF AORTIC VALVE STENOSIS” (INSERM (INSTITUT NATIONAL DE LA SANTÉ ET DE LA RECHERCHE …, priority 2021, published 2024)", "key": {"[1]": {"system": "Human Valvular Interstitial Cells (hVICs)", "assay": "human M1 macrophages secretome-induced hVICs calcification (o-cresolphthalein complexone calcium measurement)", "assay_type": "cell-based", "conditions": "M1 macrophages pre-treatment (5 μM, 72 h); n=1 VICs patient in triplicates, CM from n=1 volunteer; FIG. 4", "text": "Human aortic valves form AS patients who underwent aortic valve surgical replacement were collected at Rouen University Hospital, starting on May 2 2016, after agreement of The CPP Nord-Ouest I (RCB: 2016-A00137-44). Human Valvular Interstitial Cells (hVICs) were isolated and cultured as already described. (Morvan, Arangalage et al. 2019) Briefly, aortic valve leaflets previously collected and washed in PBS containing antibiotics were cut into pieces and digested with type I collagenase (0.22 U/mg) for 3 hours at 37° C. […]\n(§1) Previously isolated hVICs were treated for 10 days with human monocytes and M1 macrophages CM diluted v/v with DMEM (Gibco, Cat #41966-029) in the presence or not of inorganic […] (Pi) at a final concentration up to 1.9 mM (0.9 mM of […] already present in DMEM). Treatment with conditioned medium was renewed every 2 days and calcium content in each well was measured with the o-cresolphthalein complexone colorimetric method. […]\nData are obtained from indicated number of hVICs isolated from distinct patients. […] Data are expressed as mean values of control (DMSO (vehicle) treated monocytes or M1 macrophages)±SEM. When indicated, statistical significance was determined by non-parametric Kruskal-Wallis test followed by Dunns post-hoc test using Graphpad Prism 5 software. […]"}, "[2]": {"system": "Human Valvular Interstitial Cells (hVICs)", "assay": "human monocytes secretome-induced hVICs calcification (o-cresolphthalein complexone calcium measurement)", "assay_type": "cell-based", "text": "Human aortic valves form AS patients who underwent aortic valve surgical replacement were collected at Rouen University Hospital, starting on May 2 2016, after agreement of The CPP Nord-Ouest I (RCB: 2016-A00137-44). Human Valvular Interstitial Cells (hVICs) were isolated and cultured as already described. (Morvan, Arangalage et al. 2019) Briefly, aortic valve leaflets previously collected and washed in PBS containing antibiotics were cut into pieces and digested with type I collagenase (0.22 U/mg) for 3 hours at 37° C. Digested valves are filters on 70 μm cell strainers to remove undigested valve parts and obtain a homogenous cell suspension resuspended in complete smooth muscle cell basal 2 medium (PromoCell, Heidelberg, Germany) with 10% Fetal Bovine Serum (FBS) Penicillin/Streptomycin (P/S, Sigma-Aldrich Cat #P4333). Cell suspension is then seeded into rat type collagen I (3 mg/ml, Gibco, Cat #A1048301) coated flask and incubated at 37° C., 5% CO2 for several days until reaching cell confluency. At this step hVICs are obtained and cultured in DMEM (Dulbecco's modified Eagle's medium, Gibco, Cat #41966-029) with 10% FBS and P/S until passage 4. […]\nas §1\nData are obtained from indicated number of hVICs isolated from distinct patients. […] Data are expressed as mean values of control (DMSO (vehicle) treated monocytes or M1 macrophages)±SEM. When indicated, statistical significance was determined by non-parametric Kruskal-Wallis test followed by Dunns post-hoc test using Graphpad Prism 5 software. The use of non-parametric Kruskal-Wallis test was determined depending Shapiro-Wilk normality test data distribution."}}, "data": [{"smiles": "CC[C@H](C)n1cc(C)c2c(C(=O)NCc3c(C)cc(C)[nH]c3=O)cc(-c3ccc(N4CCNCC4)nc3)cc21", "note": "[GSK-126]", "values": [{"measurement": "M1 secretome-induced hVICs calcification", "setting": "[1]", "result": "reduced"}, {"measurement": "CAVD patient monocytes secretome-induced hVICs calcification", "setting": "[2]; monocytes from CAVD patients pre-treated with 5 μM for 72 h, CM1, hVICs with 1.9 mM Pi for 10 days, vs vehicle (DMSO), FIG. 2", "result": "significantly reduced"}, {"measurement": "volunteer monocytes secretome-induced hVICs calcification", "setting": "[2]; monocytes from volunteers pre-treated with 5 μM for 72 h, CM1, hVICs with 1.9 mM Pi for 10 days, vs vehicle (DMSO), FIG. 1", "result": "significantly reduced"}, {"measurement": "volunteer monocytes secretome-induced hVICs calcification 24 h after monocytes pre-treatment", "setting": "[2]; monocytes from volunteers, 72 h pre-treatment then new conditioned medium for 24 h (CM2) in the absence of inhibitor, 1.9 mM Pi, FIG. 3", "result": "the same result was obtained"}]}]}
